Experimental findings from patent US12129490B2, “Methods for generating hepatocytes and cholangiocytes from pluripotent stem cells” (UNIVERSITY HEALTH NETWORK, priority 2018, dated 2024) are described below.

The target in data set [1] is T1, CYP2B6 (Homo sapiens, UniProt P20813).
T1 sequence (P20813 1-491): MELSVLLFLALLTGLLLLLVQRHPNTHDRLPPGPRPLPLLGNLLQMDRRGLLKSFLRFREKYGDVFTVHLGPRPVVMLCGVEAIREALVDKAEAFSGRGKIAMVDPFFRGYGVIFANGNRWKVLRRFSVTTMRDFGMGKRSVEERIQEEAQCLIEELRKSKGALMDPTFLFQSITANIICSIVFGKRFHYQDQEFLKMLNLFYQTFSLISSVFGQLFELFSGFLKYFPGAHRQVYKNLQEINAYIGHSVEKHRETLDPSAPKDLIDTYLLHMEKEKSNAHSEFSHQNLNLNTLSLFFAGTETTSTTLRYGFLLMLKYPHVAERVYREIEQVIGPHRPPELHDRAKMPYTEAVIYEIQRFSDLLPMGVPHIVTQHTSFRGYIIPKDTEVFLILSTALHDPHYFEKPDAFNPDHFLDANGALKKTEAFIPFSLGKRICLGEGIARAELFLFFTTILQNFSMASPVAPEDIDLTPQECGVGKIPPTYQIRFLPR
As to the kind of experiment: CYP2B6 activity, hydroxylation of bupropion by HPLC. Format: in vitro ADME. The conditions noted are these: 8-Br-cAMP-treated cells versus primary hepatocytes. On the procedure:
Formation of the metabolite O-hydroxy-bupropion from bupropion was measured by HPLC. Activity is presented per 50,000 cells, (n=3).

Data set [2] addresses T2, CYP1A2 (Homo sapiens, UniProt P05177).
T2 sequence (P05177 1-516): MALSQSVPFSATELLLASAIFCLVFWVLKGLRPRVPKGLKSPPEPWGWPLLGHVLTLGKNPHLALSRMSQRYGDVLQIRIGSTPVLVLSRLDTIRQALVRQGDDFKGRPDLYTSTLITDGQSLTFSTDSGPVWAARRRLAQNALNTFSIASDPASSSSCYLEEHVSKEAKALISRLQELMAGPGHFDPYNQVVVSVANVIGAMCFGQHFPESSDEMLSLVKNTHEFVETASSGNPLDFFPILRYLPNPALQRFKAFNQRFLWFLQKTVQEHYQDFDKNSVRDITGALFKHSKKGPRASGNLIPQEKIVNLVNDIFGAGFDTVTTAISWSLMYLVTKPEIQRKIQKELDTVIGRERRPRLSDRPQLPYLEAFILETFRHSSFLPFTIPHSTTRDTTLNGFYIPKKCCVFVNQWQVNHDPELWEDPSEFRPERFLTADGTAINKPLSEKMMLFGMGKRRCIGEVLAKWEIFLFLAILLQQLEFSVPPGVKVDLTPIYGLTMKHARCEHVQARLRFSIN
As to the kind of experiment: CYP1A2 activity, phenacetin metabolism by HPLC. The conditions noted are these: 8-Br-cAMP-treated cells versus primary cultured hepatocytes.

For data set [3], the system named is hESC-derived cells. The data set can be described thus: Albumin secretion, ELISA. Format: cell-based, human. Here is the method: The levels of albumin (ALB) secreted by hESC-derived monolayer and aggregate populations, as well as by HepG2 cells, Huh7 cells and cryopreserved hepatocytes (PH, lot OSI) was detected using an ELISA assay. […] Only low levels were detected in HepG2, Huh7 and PH cells. By contrast, the capacity to take up indocyanine green (ICG), a characteristic of adult hepatocytes (Stieger et al., 2012) was enhanced by cAMP signaling. ICG uptake and release by cAMP-treated and non-treated was measured in day 44 aggregates.
For orientation: An ELISA detects its analyte on a solid surface through an enzyme-linked reagent.

In the case of `Nc1ncnc2c1nc(Br)n2[C@@H]1O[C@@H]2COP(=O)(O)O[C@H]2[C@H]1O` [8-Br-cAMP, 8-bromoadenosine-3′5″-cyclic monophosphate], in data set [1], the “CYP2B6 activity, hydroxylation of bupropion” value is on record as “comparable to those found in primary hepatocytes”. Further, the “O-deethylation of phenacetin (CYP1A2 activity)” value in data set [2] is reported as “as high as primary cultured hepatocytes”. Moreover, the albumin secretion entry in data set [3] is recorded as “not impacted”.
